In patent US20250333381A1, “SOLID STATE FORMS” (AMGEN INC., priority 2024, published 2025):
Values after ≈ are worked out from the molar mass of the structure shown. “Also recorded” adds a separate entry of the source. Where a name gives a salt, the structure may show the parent alone. Values belong to the molecule of their own block, whether it stands above or below them.

Assays:
C3G patients = conditions: compared to placebo, 26 weeks of blinded treatment; cited from earlier work
HS patients = conditions: vs. placebo, pre-specified Hurley Stage III (severe HS) patients, 12 weeks; cited from earlier work
[1] = Solubility in FaSSIF (shake 2 hr, HPLC); type: physicochemical; conditions: for Solubility: 2 h
Method: Solubility: Samples were prepared by adding ˜10 mg of the solid to a small centrifuge tube followed by the addition of 1.75 mL freshly prepared FaSSIF solution. The pH of each suspension was measured prior to shaking the samples in an Eppendorf ThermoMixer F1.5 at 37° C. and 1500 rpm for 2 hr. The samples were centrifuged, and the pH of each suspension was measured again at the T=2 hr timepoint. The samples were filtered through Millex 0.20 μm PTFE syringe filters and the filtrates were diluted by a factor of 2 with acetonitrile. Solubility samples were prepared in duplicate. […] The samples were analyzed by HPLC using the method parameters described in the table below. [table] […] The samples were analyzed by HPLC using the method parameters described in the table below. [table]

[2] = Dynamic Vapor Sorption (DVS), hygroscopicity; type: physicochemical; conditions: 25° C., 0% RH-90% RH-0% RH
Method: Dynamic Vapor Sorption (DVS): Water sorption data were collected using a DVS Adventure dynamic vapor sorption analyzer (Surface Measurement Systems). The relative humidity at 25° C. was calibrated against the deliquescence point of LiCl, Mg(NO3)2 and KCl. Approximately 5-15 mg were loaded onto a tared metal pan. Data were collected from 0 to 90 to 0% RH in 5% increments at 25° C. Progression to the next stage occurred when the change in mass with respect to time was less than 0.002 per minute or after 180 minutes, whichever occurred first. The minimum stage time was 10 minutes. [table]

[3] = Dissolution profiles, PION MicroDiss (FIG. 16); type: physicochemical; conditions: FaSSIF + 0.2% Tween 80, ~37° C.; for Rate and extent of dissolution: compared to amorphous free base
Method: Dissolution profiles were generated comparing the free base anhydrous crystalline form of Compound A, the amorphous free base form of Compound A, the crystalline HCl salt form of Compound A, and the crystalline HBr salt form of Compound A. The dissolution profiles were obtained by employing a PION MicroDiss profiler equipped with Rainbow […] 8-channel in-situ fiber optic UV-vis spectrometer, heating blocks and magnetic stirrers. Dissolution media was equilibrated at 37° C. using Thermo Neslab RTE 7 recirculating chiller prior to addition of samples. Calibration standards were prepared by serial dilution from a methanol stock solution at 12 levels spanning concentrations 0-38 μg/mL. Samples were analyzed simultaneously in duplicate using the parameters described in the table below. [table]

[4] = Solid form screen: thermodynamic stability and form conversion; type: physicochemical; conditions: for Thermodynamic stability among crystalline forms: screening process of the HCl and HBr salts; for Form conversion upon heating: heating (under vacuum)
Method: A solid form screen of HCl and HBr salts of Compound A was conducted. Crystalline salt forms of Compound A were identified, including a crystalline HCl salt form, a crystalline toluene solvate of a crystalline HCl salt form (also referred to herein an HCl salt toluene solvate form of Compound A), a crystalline HBr salt form, a crystalline toluene solvate of a crystalline HBr salt form (also referred to herein an HBr salt toluene solvate form of Compound A). Amorphous salt forms of Compound A were also identified, including an amorphous HCl salt form and an amorphous HBr salt form.
Further, the DV S data of both crystalline HCl and HBr salts form of Compound A indicate that these two materials are non-hygroscopic.

[5] = Dissolution profiles vs Napsylate, Tosylate, Besylate salt forms (FIGS. 35(a), 35(b)); type: physicochemical; conditions: for Cmax of dissolution profile: Besylate salts
Text: (§1) FIGS. 35(a) and 35(b) show dissolution profiles of crystalline HCl Form 1 of Compound A of this disclosure compared to Napsylate, Tosylate, and Besylate salt forms of Compound A. The concentrations of the salts used are roughly double in FIG. 35(b) than in FIG. 35(a).
as §1, with “A. Besylate, Tosylate Napsylate salt forms of Compound A were prepared as described in WO 2021/092295.” for “A.”

Solubility relative to Besylate, Tosylate and Napsylate forms [1]: significantly more soluble
Hygroscopicity (DVS) [2]: non-hygroscopic
Rate and extent of dissolution ([3]; listed as crystalline HCl salt form of Compound A): follows very closely
Cmax of dissolution profile ([3]; compared to crystalline HBr salt and amorphous form): lesser Cmax
Cmax of dissolution profile ([5]; FaSSGF+0.2% tween 80 (pH 1.2)): highest Cmax of all salts
Cmax of dissolution profile ([5]; FaSSIF+0.2% tween 80 (pH 6.5)): highest Cmax of all salts
SMILES: Cc1ccc(NC(=O)[C@H]2CCCN(C(=O)c3c(C)cccc3F)[C@H]2c2ccc(NC3CCCC3)cc2)cc1C(F)(F)F [Crystalline HCl salt form, (2R,3S)-2-(4-(cyclopentylamino)phenyl)-1-(2-fluoro-6-methylbenzoyl)-N-(4-methyl-3-(trifluoromethyl)phenyl)piperidine-3-carboxamide]
Tmax of dissolution profile ([5]; Besylate salt forms): higher than the Napsylate, Tosylate, and Besylate salt forms of Compound A
Thermodynamic stability among crystalline forms [4]: most thermodynamically stable crystalline forms identified in the screening process

Solubility [1]: 19.44 µg/mL (≈ 33.4 µM)
SMILES: Cc1ccc(NC(=O)[C@H]2CCCN(C(=O)c3c(C)cccc3F)[C@H]2c2ccc(NC3CCCC3)cc2)cc1C(F)(F)F [Free Base Amorphous Form, (2R,3S)-2-(4-(cyclopentylamino)phenyl)-1-(2-fluoro-6-methylbenzoyl)-N-(4-methyl-3-(trifluoromethyl)phenyl)piperidine-3-carboxamide, reference compound]

Solubility [1]: 1.71 µg/mL (≈ 2.94 µM)
SMILES: Cc1ccc(NC(=O)[C@H]2CCCN(C(=O)c3c(C)cccc3F)[C@H]2c2ccc(NC3CCCC3)cc2)cc1C(F)(F)F [Free Base Anhydrous Crystalline Form, (2R,3S)-2-(4-(cyclopentylamino)phenyl)-1-(2-fluoro-6-methylbenzoyl)-N-(4-methyl-3-(trifluoromethyl)phenyl)piperidine-3-carboxamide, reference compound]

Second part, the molecule before the results:

SMILES: Cc1ccc(NC(=O)[C@H]2CCCN(C(=O)c3c(C)cccc3F)[C@H]2c2ccc(NC3CCCC3)cc2)cc1C(F)(F)F [Compound A, (2R,3S)-2-(4-(cyclopentylamino)phenyl)-1-(2-fluoro-6-methylbenzoyl)-N-(4-methyl-3-(trifluoromethyl)phenyl)piperidine-3-carboxamide]
Renal function as measured by eGFR (C3G patients): statistically significant improvement in renal function
HiSCR (Hidradenitis Suppurativa Clinical Response) (HS patients): statistically significant dose-dependent improvement in HiSCR

SMILES: Cc1ccc(NC(=O)[C@H]2CCCN(C(=O)c3c(C)cccc3F)[C@H]2c2ccc(NC3CCCC3)cc2)cc1C(F)(F)F [Crystalline HBr salt form, (2R,3S)-2-(4-(cyclopentylamino)phenyl)-1-(2-fluoro-6-methylbenzoyl)-N-(4-methyl-3-(trifluoromethyl)phenyl)piperidine-3-carboxamide]
Solubility relative to Besylate, Tosylate and Napsylate forms [1]: significantly more soluble
Hygroscopicity (DVS) [2]: non-hygroscopic
Rate and extent of dissolution ([3]; listed as crystalline HBr salt form of Compound A): performed similar in terms of rate and extent of dissolution to the amorphous form of avacopan
Thermodynamic stability among crystalline forms [4]: most thermodynamically stable crystalline forms identified in the screening process

SMILES: Cc1ccc(NC(=O)[C@H]2CCCN(C(=O)c3c(C)cccc3F)[C@H]2c2ccc(NC3CCCC3)cc2)cc1C(F)(F)F [HBr salt toluene solvate form of Compound A] [(2R,3S)-2-(4-(cyclopentylamino)phenyl)-1-(2-fluoro-6-methylbenzoyl)-N-(4-methyl-3-(trifluoromethyl)phenyl)piperidine-3-carboxamide]
Form conversion upon heating [4]: convert to the respective HBr and HCl crystalline salt forms of Compound A upon heating; also recorded: converts to the HCl crystalline salt form of Compound A upon heating under vacuum from about 100 °C to about 125 °C from about 4 to about 24 hours

SMILES: Cc1ccc(NC(=O)[C@H]2CCCN(C(=O)c3c(C)cccc3F)[C@H]2c2ccc(NC3CCCC3)cc2)cc1C(F)(F)F [HCl salt toluene solvate form of Compound A] [(2R,3S)-2-(4-(cyclopentylamino)phenyl)-1-(2-fluoro-6-methylbenzoyl)-N-(4-methyl-3-(trifluoromethyl)phenyl)piperidine-3-carboxamide]
Form conversion upon heating [4]: convert to the respective HBr and HCl crystalline salt forms of Compound A upon heating; also recorded: converts to the HCl crystalline salt form of Compound A upon heating under vacuum at about 60 °C for about 2 hours
